The values that follow are results of earlier work, collected in patent US11957681B2, “Liquid dosage forms of Imatinib” (SHORLA PHARMA LTD., priority 2018, dated 2024).

Molecules are shown by their SMILES.

The conditions of data set [1]: compared with Imatinib mesylate.

In the case of `Cc1ccc(NC(=O)c2ccc(CN3CCNCC3)cc2)cc1Nc1nccc(-c2cccnc2)n1` [N-desmethyl derivative], the Potency in vitro entry in data set [1] is “potency similar to Imatinib mesylate”. The “Share of the AUC for Imatinib mesylate” value (circulating metabolite) is listed as “about 15%”. Moreover, for the setting “imatinib mesylate orally administered”, the Elimination half-life was roughly 40 h.
